Here are results for one compound from PMC12379159 (Journal of Natural Products, 2025).

The target in data set [1] is T1, full-length human RORγ (Homo sapiens, UniProt P51449).
T1 construct: Encodes for the full-length human RORγ; expressed in transfected cells; host or cells: HEK293
T1 sequence (P51449 1-518): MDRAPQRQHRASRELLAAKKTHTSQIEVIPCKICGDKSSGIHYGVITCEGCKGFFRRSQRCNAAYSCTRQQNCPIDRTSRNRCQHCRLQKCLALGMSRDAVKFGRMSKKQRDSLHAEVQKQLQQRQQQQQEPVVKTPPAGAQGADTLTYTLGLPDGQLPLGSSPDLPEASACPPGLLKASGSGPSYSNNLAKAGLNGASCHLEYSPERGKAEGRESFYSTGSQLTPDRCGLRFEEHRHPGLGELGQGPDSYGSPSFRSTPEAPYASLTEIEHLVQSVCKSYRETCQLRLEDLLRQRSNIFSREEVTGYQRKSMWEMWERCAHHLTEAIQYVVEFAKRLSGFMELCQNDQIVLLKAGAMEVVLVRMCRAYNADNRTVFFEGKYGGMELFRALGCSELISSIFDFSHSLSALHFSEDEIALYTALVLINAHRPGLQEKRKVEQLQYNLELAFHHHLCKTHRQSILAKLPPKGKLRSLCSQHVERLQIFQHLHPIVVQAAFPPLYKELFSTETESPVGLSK
The experiment in a line: Full-length RORγ luciferase assay (RORE-LUC reporter). The data set is classed as cell-based. The note with it: HEK293 cells. The protocol: (§1) For luciferase assays, 8 × 10^6 HEK293 cells were seeded on 150 mm cell culture dishes and incubated for 5 h. Afterward, cells were transfected with the calcium phosphate coprecipitation method using 5 μg of the nuclear receptor (Gal4-hRORγ or full-length human RORγ), 5 μg of a luciferase reporter (pTK-MH100 × 4-LUC for Gal4-hRORγ experiments or RORE-LUC for full-length human RORγ experiments) and 3 μg eGFP-N1 (for assessing transfection efficiency) plasmid DNA and incubated overnight. […] The medium was changed the following day, and cells were further incubated for another four to 5 h before trypsin/EDTA was added to detach them from the dishes. […] RLUs were normalized to relative fluorescence units (RFU) to account for differences in cell number and transfection efficiency and then normalized to the vehicle control. Results are expressed as fold activation relative to the vehicle control.
Concentration–response data were analyzed in GraphPad Prism version 10 by three-parameter logistic nonlinear regression, with the Hill slope constrained to a theoretical value of −1.0. An IC50 value was determined only for compounds yielding a statistically reliable fit. […] In these cases, only the maximal inhibition achieved at the highest tested concentration (I max(%) at 5 μM) is reported, calculated as follows: Imax(%)=(1−Bottom/Top)×100 (“top” = baseline activity measured at the lowest concentration, “bottom” = residual activity observed at the highest concentration, corresponding to the maximal inhibitory effect).

The target in data set [2] is T2, hRORγ LBD (Homo sapiens, UniProt P51449).
T2 construct: His tag (N, cleaved yes); made in house; host or cells: Escherichia coli BL21 DE3
T2 sequence (P51449 264-518): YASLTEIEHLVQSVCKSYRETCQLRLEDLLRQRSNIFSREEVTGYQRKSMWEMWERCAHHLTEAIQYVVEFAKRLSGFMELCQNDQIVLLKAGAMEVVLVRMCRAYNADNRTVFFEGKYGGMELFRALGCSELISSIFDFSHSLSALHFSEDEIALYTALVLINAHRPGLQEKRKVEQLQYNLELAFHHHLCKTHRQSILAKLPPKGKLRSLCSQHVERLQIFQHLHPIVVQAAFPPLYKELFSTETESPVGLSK
The experiment in a line: Thermal stability by nano differential scanning fluorimetry (nanoDSF). The note with it: RORγ-LBD with 4 equiv ligand vs without ligand; mean ± SD. The data set is classed as binding. The protocol: Soluble proteins were purified on Ni Hitrap FFcrude column (Cytiva), followed by His tag removal by thrombin (MP Biomedicals) cleavage and by size exclusion chromatography on HiLoad Superdex200 column (Cytiva) equilibrated in 20 mM Tris-HCl pH 7.5, 150 mM NaCl, 1 mM TCEP (Hampton Research). Purity and homogeneity of the hRORγ LBD were assessed by SDS-PAGE. The purified protein was concentrated to 0.5–1.0 mg/mL with an Amicon Ultra 10 kDa MWCO. The aliquots of purified LBD were incubated with 4 equiv ligands or vehicle for thermal stability experiments.
Fluorescence-based thermal experiments were performed using a Prometheus NT.48 (NanoTemper Technologies, Germany) with grade standard capillaries containing 10 μL of RORγLBD with different ligands. […] NanoTemper PR. Stability Analysis v1.0.2 was used to fit the data and determine the melting temperatures Tm.
In general terms: Differential scanning fluorimetry follows unfolding on heating by fluorescence.

Data set [3] has as its system interleukin 23 receptor (Il23r). The experiment in a line: RT-qPCR of Il23r in EL-4-mRORγt cells. It is filed as cell-based, murine. The note with it: indicated concentrations, 20–24 h, then 4.5-h PMA and ionomycin. How it is done: For RT-qPCR assays, 5 × 10^5 EL-4-mRORγt cells were seeded in 500 μL complete DMEM per well of a 24-well plate and treated with the vehicle control, the positive control, or the compounds of interest. After incubation for 20–24 h, cells were stimulated with Cell Activation Cocktail (PMA: 40.5 μM, ionomycin: 669.3 μM; 500X) for 4.5 h. Afterward, total RNA was isolated using the innuPREP RNA Mini Kit 2.0 according to the manufacturer’s instructions. According to the manufacturer’s instructions, 1 μg RNA was reverse-transcribed into cDNA using the High-Capacity cDNA Reverse Transcription Kit. RT-qPCR was performed using the Luna Universal qPCR Master Mix on a LightCycler 480 (Roche Diagnostics, Rotkreuz, Switzerland) according to the manufacturer’s instructions. […] Livak’s 2−ΔΔCt method was employed to determine the expression levels of RORγ target genes. This involved normalizing the target gene expression to the expression levels of the control gene 18s, followed by further normalization to the vehicle control.

Data set [4] relates to HEK293 cells. The experiment in a line: Resazurin conversion assay in HEK293 cells. The note with it: 5 μM, 18 h. The data set is classed as cell-based, human. The protocol: To check the metabolic activity of cells correlating with cell viability, cells were treated with the vehicle control (0.1% DMSO), digitonin as the positive control for cytotoxicity at 20 μg/mL (HEK293 cells) or 50 μg/mL (EL-4-mRORγt cells), or the compounds of interest at 5 μM for 18 h (HEK293 cells) or 20–24 h (EL-4-mRORγt cells). The next day, the medium was carefully removed and replaced with stripped DMEM without phenol red, containing 10 μg/mL resazurin sodium salt. Cells were incubated for 5 h before RFU values were measured at λem = 590 nm using a spectrophotometer. Cell viability was calculated as follows: Cell viability(%)=100×RFU value after compound treatment/RFU value after vehicle control treatment Cytotoxicity was defined as cell viability under 70% according to the ISO 10993–5 guidelines. Cell viability <90% is explicitly stated in the respective figure.

For data set [5], the target named is T3, luciferase (Photinus pyralis, UniProt P08659).
T3 construct: expressed in transfected cells; host or cells: HEK293
T3 sequence (P08659 whole entry): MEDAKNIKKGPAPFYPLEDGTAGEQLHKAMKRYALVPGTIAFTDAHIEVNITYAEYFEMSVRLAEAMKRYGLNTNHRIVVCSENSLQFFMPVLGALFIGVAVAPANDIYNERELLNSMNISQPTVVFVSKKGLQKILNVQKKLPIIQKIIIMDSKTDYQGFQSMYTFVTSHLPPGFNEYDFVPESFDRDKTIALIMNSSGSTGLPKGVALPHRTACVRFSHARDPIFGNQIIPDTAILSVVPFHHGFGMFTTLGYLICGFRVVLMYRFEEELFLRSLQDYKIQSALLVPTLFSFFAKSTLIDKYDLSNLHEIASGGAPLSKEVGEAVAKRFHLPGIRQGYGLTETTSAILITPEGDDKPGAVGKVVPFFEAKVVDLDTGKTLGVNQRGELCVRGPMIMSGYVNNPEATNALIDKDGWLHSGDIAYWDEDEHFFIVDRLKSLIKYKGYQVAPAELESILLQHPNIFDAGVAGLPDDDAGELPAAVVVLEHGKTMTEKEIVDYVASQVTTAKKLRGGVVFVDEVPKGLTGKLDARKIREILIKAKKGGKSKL
The experiment in a line: Direct luciferase inhibition check (cells transfected only with pTK-MH100 × 4-LUC and eGFP-N1). The note with it: 5 μM. The data set is classed as cell-based. The protocol:
as §1

With `C=C(C)[C@@H]1CC[C@]2(C(=O)O)CC[C@]3(C)[C@H](CC[C@@H]4[C@@]5(C)C/C(=C/c6ccco6)C(=O)C(C)(C)[C@@H]5CC[C@]43C)[C@@H]12` [Compound 15, (2Z)-2-(2-furanylmethylene)-3-oxolup-20(29)-en-28-oic acid], in data set [1] (5 μM), the “Imax(%) at 5 μM, full-length RORγ luciferase assay” value is recorded as 69%. Besides, in data set [1] (18 h treatment, up to 5 μM, read-out: IC50, full-length RORγ luciferase assay), the IC50 stood at 900 nM. In addition, the “ΔTm measured with nano differential scanning fluorimetry” value in data set [2] stood at 9.6 ± 0.4 °C. For the same compound, in data set [3], the Il23r expression result is listed as “concentration-dependent down-regulation”. Moreover, the “Cytotoxic effects, resazurin conversion assay” value in data set [4] is reported as “no cytotoxic effects”. Also, in data set [5], the “Inhibition of luciferase enzyme activity” value was “did not inhibit luciferase enzyme activity”.

Broadly, the IC50 is the point on the concentration scale where inhibition reaches its midpoint.
